Data: patent US20020151467A1 (priority 2000, published 2002)

Tests used:
Assay type in all cases: in vivo
nondiabetic rats [1] = test: Hypoglycemic efficacy of oral insulin (Musulin) compared to subcutaneous and intraperitoneal injections in rats; details: 1.67 unit every 5 minutes
Method: All rats weighed 50-80 gms, age of the rats was 1 month. Group 1 (control—placebo): 6 rats; Group 2 (Musulin™): 6 rats; Group 3 (Musulin™): 5 rats; Group 4 (Musulin™): 5 rats; Group 5 (intraperitoneal injection): 5 rats; and Group 6 (subcutaneous injection): 5 rats. All rats were fasted 2 hrs before experiments. They were lightly anesthesized by ether. Neck skin was dissected and the jugular vein was exposed. 0.1 ml of blood was drawn at times 0, 5, 10,15, 30, 60, 90, 120, 150, 180, 210, 240, 270, 300 minutes for glucose measurement by Abbott's Precision glucose monitor. In order to ensure the maximal exposure and absorption of Musulin™ in the rats' tiny oral cavities, the rats were fed constant amounts at preset time periods. […] Group 3 received 3.33 units and Group 4 received 6.67 units every 5 minutes.
All data were analysed using SAS system, Version 6.12. in 2 ways: 1) Simultaneous comparison of multiple groups by Dunnett's t test at 5% significance level. 2) Comparison of slopes of the glucose reduction rate by repeated measures analysis of variance method by the “Mixed Procedure” of the SAS system software.

nondiabetic rats [2] = test: Transdermal insulin (Dermulin) vs intraperitoneal insulin injection, blood glucose in rats; details: for Percent of glucose reduction: Group 4: intraperitoneal 12.5 u insulin
Method: All rats weighed 50-80 gms, aged 1 month. Group 1 (control—placebo): 6 rats, Group 2 (Dermulin™, 12.5 u): 5 rats, Group 3 (Dermulin™, 25 u): 5 rats, Group 4 (intraperitoneal injection): 5 rats.
All rats were fasted 2 hrs before experiments. They were lightly anesthesized by ether. Neck skin was dissected and jugular vein was exposed. 0.1 ml of blood was drawn at time 0, 5, 10, 15, 30, 60, 90, 120, 150, 180, 210, 240, 270, 300 minutes for glucose measurement by Abbott's Precision glucose monitor. Hair was shaved from the abdomen. Group 2 and Group3 had 12.5 u and 25 u of Dermulin™ applied to the abdominal skin respectively.
All data were analyzed using SAS system, Version 6.12. in 2 ways: 1) Simultaneous comparison of multiple groups by Dunnett's t test at 5% significance level. 2) Comparison of slopes of the glucose reduction rate by repeated measures analysis of variance method by the “Mixed Procedure” of the SAS system software.

nondiabetic rats [3] = test: Transdermal insulin (Dermulin) vs subcutaneous insulin injection, blood glucose in rats; details: for Percent of glucose reduction compared to initial levels: Group 4: subcutaneous 12.5 u insulin
Method: All rats weighed 50-80 gms, aged 1 month. Group 1 (control—placebo): 6 rats, Group 2 (Dermulin™, 12.5 u): 5 rats, Group 3 (Dermulin™, 25 u): 5 rats, Group 4 (subcutaneous injection): 5 rats.
All rats were fasted 2 hrs before experiments. They were lightly anesthesized by ether. Neck skin was dissected and jugular vein was exposed. 0.1 ml of blood was drawn at time 0, 5, 10, 15, 30, 60, 90, 120, 150, 180, 210, 240, 270, 300 minutes for glucose measurement by Abbott's Precision glucose monitor. Hair was shaved from the abdomen. Group 2 and Group 3 had 12.5 u and 25 u of Dermulin™ applied to the abdominal skin respectively.
All data were analyzed using SAS system, Version 6.12. in 2 ways: 1) Simultaneous comparison of multiple groups by Dunnett's t test at 5% significance level. 2) Comparison of slopes of the glucose reduction rate by repeated measures analysis of variance method by the” Mixed Procedure” of the SAS system software.

[4] = Group 5: intraperitoneal insulin injection
[5] = Group 4: single intraperitoneal injection of 12.5 u insulin
[6] = Group 4: single subcutaneous injection of 12.5 u insulin
[7] = Group 6: subcutaneous insulin injection

## intraperitoneal injection: injection control: insulin given intraperitoneally
Nondiabetic rats [1]; [4]
  Death from hypoglycemia within 300 minutes: 80%
  Rate of glucose reduction at the maximal slope: -0.54 mg/min
  Statistically significant onset of action: 10 min
  time for 50% rats to achieve 50% glucose reductions: 13 min
Nondiabetic rats [1]; Group 5: intraperitoneal insulin injection, at 60 minutes
  Percent mean reduction of glucose compared to initial levels: 30.4 (s.d. 3.8) Percent
Nondiabetic rats [1]; Group 5: intraperitoneal insulin injection, at 120 minutes
  Percent mean reduction of glucose compared to initial levels: 18.7 (s.d. 15.2) Percent
Nondiabetic rats [1]; Group 5: intraperitoneal insulin injection, at 300 minutes
  Percent mean reduction of glucose compared to initial levels: 0 (s.d. 0) Percent
Nondiabetic rats [2]; at 60 minutes
  Percent of glucose reduction: 26.1 (s.d. 13.4) Percent
Nondiabetic rats [2]; at 120 minutes
  Percent of glucose reduction: 16.5 (s.d. 13) Percent
Nondiabetic rats [2]; at 180 minutes
  Percent of glucose reduction: 25.8 (s.d. 14.1) Percent
Nondiabetic rats [2]; at 300 minutes
  Percent of glucose reduction: 27.8 (s.d. 33.6) Percent
Nondiabetic rats [2]; [5]
  Rate of glucose reduction at the slope: -0.5 mg/min
  Statistically significant onset of action: 5 min

## subcutaneous injection: injection control: insulin (Humalog) by subcutaneous injection
Nondiabetic rats [3]; [6]
  Rate of glucose reduction at the slope between 30-120 min.: -0.5 mg/min
  Statistically significant onset of action: 5 min
Nondiabetic rats [3]; at 60 minutes
  Percent of glucose reduction compared to initial levels: 28 (s.d. 13.4) Percent
Nondiabetic rats [3]; at 120 minutes
  Percent of glucose reduction compared to initial levels: 21.9 (s.d. 13) Percent
Nondiabetic rats [3]; at 180 minutes
  Percent of glucose reduction compared to initial levels: 17.2 (s.d. 14.1) Percent
Nondiabetic rats [3]; at 300 minutes
  Percent of glucose reduction compared to initial levels: 0%
Nondiabetic rats [1]; [7]
  Death from hypoglycemia within 300 minutes: 100%
  Rate of glucose reduction at the maximal slope: -0.51 mg/min
  Statistically significant onset of action: 10 min
  time for 50% rats to achieve 50% glucose reductions: 15 min
Nondiabetic rats [1]; Group 6: subcutaneous insulin injection, at 60 minutes
  Percent mean reduction of glucose compared to initial levels: 39.8 (25.5) Percent
Nondiabetic rats [1]; Group 6: subcutaneous insulin injection, at 120 minutes
  Percent mean reduction of glucose compared to initial levels: 25.5 (s.d. 31.7) Percent
Nondiabetic rats [1]; Group 6: subcutaneous insulin injection, at 300 minutes
  Percent mean reduction of glucose compared to initial levels: 41.1%
